Calls of active or inactive are those of the source. The rule behind the calls is not given here.
How the values were obtained:
HepG2 [1] = assay: Effective concentration against secretion of apolipoprotein B (ApoB) from HepG2 cell using apolipoprotein secretion assay; assay type: functional, cell-based; conditions: Homo sapiens
Rattus norvegicus [2] = assay: Inhibitory activity (25 mg/kg) against hepatic lipoprotein secretion; assay type: functional
HepG2 [3] = assay: Effective concentration against secretion of apolipoprotein A1 (ApoA1) from HepG2 cell using apolipoprotein secretion assay; assay type: functional, cell-based; conditions: Homo sapiens
[4] = biological target: T1, Microsomal triglyceride transfer protein large subunit (Bos taurus, UniProt P55156); assay: Inhibitory activity against microsomal triglyceride transfer protein (MTP)
T1 sequence (P55156 whole entry): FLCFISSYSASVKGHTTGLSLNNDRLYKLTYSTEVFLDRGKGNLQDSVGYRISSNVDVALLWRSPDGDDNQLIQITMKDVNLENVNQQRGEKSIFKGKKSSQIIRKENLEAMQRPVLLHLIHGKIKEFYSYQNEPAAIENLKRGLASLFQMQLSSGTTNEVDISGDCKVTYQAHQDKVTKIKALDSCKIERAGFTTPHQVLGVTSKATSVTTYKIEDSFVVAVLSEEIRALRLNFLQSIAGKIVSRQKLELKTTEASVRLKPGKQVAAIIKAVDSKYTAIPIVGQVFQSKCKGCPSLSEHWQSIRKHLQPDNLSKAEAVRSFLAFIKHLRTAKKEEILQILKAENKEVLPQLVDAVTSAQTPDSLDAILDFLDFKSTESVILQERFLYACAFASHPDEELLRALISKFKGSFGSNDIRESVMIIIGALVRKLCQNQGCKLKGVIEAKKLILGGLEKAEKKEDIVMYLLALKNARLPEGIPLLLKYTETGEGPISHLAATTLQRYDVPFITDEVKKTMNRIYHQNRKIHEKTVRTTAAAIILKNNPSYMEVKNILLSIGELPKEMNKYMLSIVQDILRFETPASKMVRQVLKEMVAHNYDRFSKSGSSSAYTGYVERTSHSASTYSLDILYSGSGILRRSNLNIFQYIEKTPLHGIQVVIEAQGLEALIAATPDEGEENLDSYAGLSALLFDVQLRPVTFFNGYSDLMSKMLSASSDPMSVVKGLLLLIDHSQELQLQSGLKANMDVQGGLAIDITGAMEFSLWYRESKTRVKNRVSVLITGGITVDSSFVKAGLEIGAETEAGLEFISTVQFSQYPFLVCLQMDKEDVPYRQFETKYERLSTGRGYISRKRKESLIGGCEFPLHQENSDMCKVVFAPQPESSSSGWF

HepG2 [5] = assay: Effective concentration against apolipoprotein A1 (ApoA1) from HepG2 cell using apolipoprotein secretion assay; assay type: functional, cell-based; conditions: Homo sapiens
HepG2 [6] = assay: Effective concentration against apolipoprotein B (ApoB) from HepG2 cell using apolipoprotein secretion assay; assay type: functional, cell-based; conditions: Homo sapiens
Cricetinae gen. sp. [7] = assay: Inhibitory activity against plasma cholesterol level after oral administration (qd) (100 mg/kg) for 3 days in hamsters; assay type: functional, Cricetulus griseus
Rattus norvegicus [8] = assay: Effective dose for inhibition of lipoprotein production (in vivo) after intravenous administration using fasted triton rat assay; assay type: functional
Rattus norvegicus [9] = assay: Effective dose for inhibition of lipoprotein production (in vivo) after oral administration using fasted triton rat assay; assay type: functional
Cricetinae gen. sp. [10] = assay: Inhibitory activity against plasma cholesterol level after oral administration (15 mg/kg/day) in hamsters; assay type: functional, Cricetulus griseus
Cricetinae gen. sp. [11] = assay: Inhibitory activity against plasma cholesterol level after oral administration (15 mg/kg/day) over 3 days in hamsters; assay type: functional, Cricetulus griseus
Rattus norvegicus [12] = assay: Ability to inhibit lipoprotein production (in vivo) after oral administration (50 mg/kg) using fasted triton rat assay;IA: inactive; assay type: functional, organism-based

Compound | IC50 [4] [nM] | further results
CCCCOP(=O)(CCCCC1(C(=O)NCCc2ccc(OC)cc2)c2ccccc2-c2ccccc21)OCCCC | 21 | EC50 (HepG2 [1]): 23 nM; Inhibition (Rattus norvegicus [2]): 15%; EC50 (HepG2 [3]): > 330 nM
O=C1c2ccccc2CN1C1CCN(CCC(c2ccccc2)c2ccccc2)CC1 | 2200 | 
Cc1cccc(CCCOP(=O)(CCCCC2(C(=O)NCC(F)(F)F)c3ccccc3-c3ccccc32)OCCCc2cccc(C)n2)n1 | 45 | 
O=C(NC1CCN(CCCC2(C(=O)NCC(F)(F)F)c3ccccc3-c3ccccc32)CC1)c1ccccc1 | 230 | EC50 (HepG2 [5]): > 3300 nM; EC50 (HepG2 [6]): 80 nM
CCCCOP(=O)(CCCCC1(C(=O)NCc2ccc(N)cc2)c2ccccc2-c2ccccc21)OCCCC | 890 | 
O=C(NCC(F)(F)F)C1(CCCCP(=O)(OCCc2ccccn2)OCCc2ccccn2)c2ccccc2-c2ccccc21 | 40 | 
CC(C)(C)COP(=O)(CCCCC1(C(=O)NCC(F)(F)F)c2ccccc2-c2ccccc21)OCC(C)(C)C | 33 | 
CCCCOP(=O)(CCCCC1(C(=O)NCC(F)(F)F)c2ccccc2-c2ccccc21)OCCCC | 22 | Inhibition (Cricetinae gen. sp. [7]): 15%; ED30 (Rattus norvegicus [8]): 4 mg/kg; EC50 (HepG2 [1]): 7 nM; ED30 (Rattus norvegicus [9]): 8 mg/kg; EC50 (HepG2 [3]): > 3300 nM
O=C(NCC(F)(F)F)C1(CCCCP(=O)(OCc2ccccn2)OCc2ccccn2)c2ccccc2-c2ccccc21 | 27 | 
CCCOP(=O)(CCCCC1(C(=O)NCC(F)(F)F)c2ccccc2-c2ccccc21)OCCC | 90 | 
CCCCOP(=O)(CCCCC1(C(=O)NCc2ccccc2)c2ccccc2-c2ccccc21)OCCCC | 250 | EC50 (HepG2 [1]): 58 nM; EC50 (HepG2 [3]): > 1000 nM
CCCCOP(=O)(CCCCC1(C(=O)NCc2ccccn2)c2ccccc2-c2ccccc21)OCCCC | 470 | 
O=C(NCC(F)(F)F)C1(CCCCP(=O)(OCc2ccncc2)OCc2ccncc2)c2ccccc2-c2ccccc21 | 85 | 
CCCCOP(=O)(CCCCC1(C(=O)NCCN2CCOCC2)c2ccccc2-c2ccccc21)OCCCC | 500 | 
CCCCOP(=O)(CCCCCC1(C(=O)NCC(F)(F)F)c2ccccc2-c2ccccc21)OCCCC | 65 | 
O=C(NCC(F)(F)F)C1(CCCCP(=O)(OCCCc2ccccn2)OCCCc2ccccn2)c2ccccc2-c2ccccc21 | 25 | Inhibition (Cricetinae gen. sp. [10]): 15%
CCCNC(=O)C1(CCCCP(=O)(OCC)OCC)c2ccccc2-c2ccccc21 | 135 | 
O=C(NCC(F)(F)F)C1(CCCCP(=O)(OCc2cccnc2)OCc2cccnc2)c2ccccc2-c2ccccc21 | 24 | 
CCCCNC(=O)C1(CCCCP(=O)(OCCCC)OCCCC)c2ccccc2-c2ccccc21 | 400 | 
C=CCC1(C(=O)NCC)c2ccccc2-c2ccccc21 | 2200 | 
CC(C)OP(=O)(CCCCC1(C(=O)NCC(F)(F)F)c2ccccc2-c2ccccc21)OC(C)C | 280 | 
CCCCOP(=O)(CCCCCCC1(C(=O)NCC(F)(F)F)c2ccccc2-c2ccccc21)OCCCC | 45 | 
CC(C)COP(=O)(CCCCC1(C(=O)NCC(F)(F)F)c2ccccc2-c2ccccc21)OCC(C)C | 55 | 
CCOP(=O)(CCCCC1(C(=O)NCC(F)(F)F)c2ccccc2-c2ccccc21)OCC | 145 | 
Cc1cccc(COP(=O)(CCCCC2(C(=O)NCC(F)(F)F)c3ccccc3-c3ccccc32)OCc2cccc(C)n2)n1 | 11 | Inhibition (Cricetinae gen. sp. [11]): 35%
CCCCOP(=O)(CCCCC1(C(=O)NCCC)c2ccccc2-c2ccccc21)OCCCC | 14 | ED30 (Rattus norvegicus [8]): 15 mg/kg; EC50 (HepG2 [1]): 100 nM; EC50 (HepG2 [3]): 8000 nM; Activity (Rattus norvegicus [12]): inactive

Now from value to compound, other results behind:

IC50 [4] [nM] | Compound | further results
4500 | CCCCOP(=O)(CCCSc1nc2ccc(OCC)cc2s1)OCCCC | EC50 (HepG2 [5]): 13200 nM; EC50 (HepG2 [6]): 3900 nM
6000 | CCCCOP(=O)(CCCCCSc1nc2ccc(OCC)cc2s1)OCCCC | 
12000 | CCCCOP(=O)(CCCCSc1nc2ccc(OCC)cc2s1)OCCCC | 
6000 | CCCCOP(=O)(CCCSc1nc2ccc(OCC)cc2n1C)OCCCC | 
450 | CCCCOP(=O)(CCCCC1(C(=O)OC)c2ccccc2-c2ccccc21)OCCCC | 
30000 | CCCCOP(=O)(CCCOc1cccc2ccccc12)OCCCC | 
5000 | CCCCOP(=O)(CCCSc1nc2ccc(OCC)cc2o1)OCCCC | 
> 100000 | CCCCOP(=O)(CCCSc1cccs1)OCCCC | 
4800 | CCCCOP(=O)(CCCOc1ccccc1)OCCCC | 
> 30000 | CCCCOP(=O)(CCCSc1nc(-c2ccccc2)c(-c2ccccc2)[nH]1)OCCCC | 
10000 | CCCCOP(=O)(CCCSc1nc2cc(OCC)ccc2[nH]1)OCCCC | 
27000 | CCCCOP(=O)(CCCSc1ccncc1)OCCCC | 
6000 | CCCCOP(=O)(CCCSc1nc(-c2ccccc2)c(-c2ccccc2)o1)OCCCC | 

Reference: ChEMBL document CHEMBL1145768, “Microsomal triglyceride transfer protein inhibitors: discovery and synthesis of alkyl phosphonates as potent MTP inhibitors and cholesterol lowering agents” (Bioorg Med Chem Lett, 2003)
